Literature values as cited in patent US20250194589A1, “AGROCHEMICAL EMULSIFIABLE COMPOSITION” (priority 2022, published 2025).
Read-outs that look alike come from different tables or passages of the source.

Tests used:
[1] = not given; remark: listed apart in the source
[2] = measurement method: Flask shaking

Molecule | LogPow (measurement method not printed) | LogPow [2] | Degree of water-solubility ([1]; 20° C.) [ng/mL] | further results
CC1(C)C(C=C(Cl)Cl)C1C(=O)OC(C#N)c1ccc(F)c(Oc2ccccc2)c1 (stereo not drawn) [Cyfluthrin] | 6.00 | – | – | –
O=C(NC(=O)c1c(F)cccc1F)Nc1cc(Cl)c(OC(F)(F)C(F)C(F)(F)F)cc1Cl (stereo not drawn) [Lufenuron] | – | – | – | Degree of water-solubility ([1]; 25° C.): <60 ng/mL; LogPow (measurement method: HPLC): 5.12
CC1(C)C(C=C(Cl)Cl)C1C(=O)OCc1cccc(Oc2ccccc2)c1 (stereo not drawn) [Permethrin] | – | 6.36 | – | –
Cc1ccc(/N=C/N(C)/C=N/c2ccc(C)cc2C)c(C)c1 [Amitraz] | 5.5 | – | – | Degree of water-solubility ([1]; 25° C.): 94 ng/mL
ClC1=C(Cl)C(Cl)(C2(Cl)C(Cl)=C(Cl)C(Cl)=C2Cl)C(Cl)=C1Cl [Dienochlor] | 7.2 | – | – | Degree of water-solubility ([1]; 25° C.): 26 ng/mL
CC1(C)[C@H](C(=O)O[C@H](C#N)c2cccc(Oc3ccccc3)c2)[C@@H]1/C=C\C(=O)OC(C(F)(F)F)C(F)(F)F [Acrinathrin] | – | 5.6 | – | –
CC(C)(C)c1ccc(CCOc2ncnc3ccccc23)cc1 [Fenazaquin] | 5.71 | – | – | –
Cc1nn(C)c(/C(OC(=O)C(C)(C)C)=C(\C#N)c2ccc(C(C)(C)C)cc2)c1C [Cyenopyrafen] | – | – | 300 | LogPow (measurement method: HPLC): 5.6
Milbemectin [Milbemectin (M.A3)] | – | >4.94 | 880 | –
C/C(=N\C#N)N(C)Cc1ccc(Cl)nc1 [Acetamiprid, acetamiprid] | Acetamiprid (LogPow = 0.8) | – | – | LogPow (measurement method not printed, listed as acetamiprid): 0.8
CCCCN(CCCC)SN(C)C(=O)Oc1cccc2c1OC(C)(C)C2 [Carbosulfan] | 5.45 | – | – | Degree of water-solubility ([1]; 25° C.): 3000 ng/mL
Cc1c(COC(=O)[C@@H]2[C@H](/C=C(\Cl)C(F)(F)F)C2(C)C)cccc1-c1ccccc1 (racemic) [Bifenthrin] | – | – | – | Degree of water-solubility ([1]; 20-25° C.): <0.1 ng/mL; LogPow (measurement method: HPLC): 6.6
CCCSP(=S)(OCC)Oc1ccc(Cl)cc1Cl (stereo not drawn) [Prothiofos] | – | 5.67 | – | –
CCOC(=O)CCN(SN(C)C(=O)Oc1cccc2c1OC(C)(C)C2)C(C)C [Benfuracarb] | – | 4.22 | – | –
Clc1ccccc1-c1nnc(-c2ccccc2Cl)nn1 [Clofentezine] | – | – | – | LogPow (measurement method: HPLC): 4.1
Lepimectin | – | – | – | Degree of water-solubility ([1]; 25° C.): 103.47 ng/mL; LogPow (measurement method: HPLC): 6.5
Cc1c(F)c(F)c(COC(=O)[C@@H]2[C@H](/C=C(\Cl)C(F)(F)F)C2(C)C)c(F)c1F (racemic) [Tefluthrin] | 6.4 | – | – | –
CC(C)C(C(=O)OC(C#N)c1cccc(Oc2ccccc2)c1)c1ccc(Cl)cc1 (stereo not drawn) [Fenvalerate] | 6.53 | – | – | –
CCOc1ccc(C(C)(C)COCc2cccc(Oc3ccccc3)c2)cc1 [Etofenprox] | – | – | 22.5 | LogPow (measurement method: HPLC): 6.9
COCCOC(=O)C(C#N)(C(=O)c1ccccc1C(F)(F)F)c1ccc(C(C)(C)C)cc1 (stereo not drawn) [Cyflumetofen] | – | – | – | LogPow (measurement method: HPLC): 4.3
Emamectin benzoate | 5.7 | – | – | –

Molecule | LogPow (measurement method not printed) | LogPow [2] | Degree of water-solubility ([1]; 20° C.) [ng/mL] | further results
O=C(NC(=O)c1c(F)cccc1F)Nc1ccc(OC(F)(F)C(F)OC(F)(F)F)c(Cl)c1 (stereo not drawn) [Novaluron] | – | – | 3 | LogPow (measurement method: HPLC): 4.3
CON=CNC(=O)c1ccc(C2=NOC(c3cc(Cl)cc(Cl)c3)(C(F)(F)F)C2)cc1C (stereo not drawn) [Fluxametamide] | – | – | 54 | LogPow (measurement method: HPLC): 5.0
CCCSP(=O)(OCC)Oc1ccc(Br)cc1Cl (stereo not drawn) [Profenofos] | 4.435 | – | – | –
Pyrethrin | 5.6 | – | – | Degree of water-solubility ([1]; temperature not given): 9000 ng/mL
CC(C)[C@H](Nc1ccc(C(F)(F)F)cc1Cl)C(=O)OC(C#N)c1cccc(Oc2ccccc2)c1 (stereo partly drawn) [Fluvalinate] | – | 4.26 | 1.12 | –
Abamectin | – | 4.4 ± 0.3 | – | Degree of water-solubility ([1]; 25° C.): 1210 ng/mL
CCCOc1cc(C(F)(F)F)ccc1O[C@H]1C[C@H]2CCC[C@@H](C1)N2Oc1ccc(C(F)(F)F)cn1 [Acynonapyr] | 6.5 | – | 0.889 | –
CC(C)[C@H](C(=O)OC(C#N)c1cccc(Oc2ccccc2)c1)c1ccc(OC(F)F)cc1 (stereo partly drawn) [Flucythrinate] | 4.74 | – | – | –
COC(=O)N(C(=O)N1CO[C@@]2(C(=O)OC)Cc3cc(Cl)ccc3C2=N1)c1ccc(OC(F)(F)F)cc1 [Indoxacarb] | – | 4.65 | – | Degree of water-solubility ([1]; 25° C.): 200 ng/mL
CCc1nn(C)c(C(=O)NCc2ccc(Oc3ccc(C)cc3)cc2)c1Cl [Tolfenpyrad] | Tolfenpyrad (LogPow = 5.61) | 5.6 | – | Degree of water-solubility ([1]; 25° C.): 87 ng/mL; LogPow (measurement method not printed, listed as tolfenpyrad): 5.61
CCOP(=S)(OCC)Oc1nc(Cl)c(Cl)cc1Cl [Chlorpyrifos] | – | 4.70 | – | Degree of water-solubility ([1]; 25° C.): 941 ng/mL
Milbemectin [Milbemectin (M.A4)] | – | >5.06 | 7200 | –
CCOc1cc(C(C)(C)C)ccc1C1COC(c2c(F)cccc2F)=N1 (stereo not drawn) [Etoxazole] | 5.52 ± 0.58 | – | 70.4 | –
COC(c1ccc(N(C(=O)c2c(C)nn(C)c2C)C(=O)C(C)C)cc1CC(C)C)(C(F)(F)F)C(F)(F)F [Pyflubumide] | – | 5.34 | 270 | –
CCC(C)(C)C(=O)OC1=C(c2ccc(Cl)cc2Cl)C(=O)OC12CCCCC2 [Spirodiclofen] | – | 5.83 | 50 | –
CCOP(=O)(SC(C)CC)SC(C)CC (stereo not drawn) [Cadusafos] | – | – | – | LogPow (measurement method: HPLC): 4.08
Cc1cc(C)c(C2=C(OC(=O)CC(C)(C)C)C3(CCCC3)OC2=O)c(C)c1 [Spiromesifen] | – | – | 130 | LogPow (measurement method: HPLC): 4.55
CCc1nn(C)c(C(=O)NCc2ccc(C(C)(C)C)cc2)c1Cl [Tebufenpyrad] | – | 4.93 | – | –
CC1(C)C(/C=C(\Cl)C(F)(F)F)C1C(=O)OC(C#N)c1cccc(Oc2ccccc2)c1 (stereo not drawn) [Cyhalothrin] | 6.9 | – | 4.2 | –
FC(F)(F)c1ccc(OCCCOc2c(Cl)cc(OCC=C(Cl)Cl)cc2Cl)nc1 [Pyridalyl] | – | – | – | Degree of water-solubility ([1]; 25° C.): 0.15 ng/mL; LogPow (measurement method: HPLC): 8.1
